What was measured:
KM12 cells = experiment: KM12 cell viability assay (CellTiter-Glo); assay type: cell-based; conditions: for IC50: Homo sapiens, 72 h, KM12 cells, 3 days, CellTiter-Glo
Protocol: The kinase activity of TRK is known to play important roles in tumors expressing TRK-fusion proteins, as TRK kinase inhibitors compromise cell proliferation, survival, and induce marked clinical responses (Amatu et al., 2016; Drilon et al., 2018; Drilon et al., 2017; Khotskaya et al., 2017). KM12 cells seeded in 96-well plates were treated with heterobifunctional compounds following a 11-point 3-fold serial dilution. Three days after treatment, cell viability was determined using the CellTiter-Glo kit, and normalized to the mean values of 3 replicates of untreated cells. Dose-dependent response was analyzed following the least-squares non-linear regression method using the GraphPad Prism software. Each data point in the figure represents the mean values of three technical replicates ±standard deviation.
KM12 cells seeded in 96-well plates were treated with heterobifunctional compounds following a 11-point 3-fold serial dilution for 3 days.
KM12, TRKA G595R mutated KM12, HEL, and other cells were cultured at 37° C. with 5% CO2 in DMEM or RPMI 1640 Medium supplemented with 10% fetal bovine serum. Cells were authenticated using the short tandem repeat (STR) assays. Mycoplasma test results were negative.
Cells were seeded at a density of 5000 cells per well in 96-well assay plates and treated with test compounds following a 11-point 3-fold serial dilution. Three days later, cell viability was determined using the CellTiter-Glo assay kit (Promega) according to the manufacturer's instructions. The dose-response curves were determined and IC50 values were calculated using the GraphPad Prism software following a nonlinear regression (least squares fit) method.

TPM3-TRKA fusion protein = molecular target: T1, TPM3-TRKA fusion protein (Homo sapiens, UniProt P04629); experiment: TPM3-TRKA degradation in KM12 cells (Western blot); assay type: cell-based; conditions: 16 hours, TRK protein, immunoblot; for inhibition at 0.01 µM: 10 nM; for inhibition at 0.1 µM: 100 nM
T1 construct: TPM3 (N-terminal part of tropomyosin alpha-3, natural fusion partner); endogenous in cells; host or cells: KM12 colon cancer cells; the other entry of the earlier key: TPM3 (P06753, Tropomyosin alpha-3 chain)
Protocol: Specific exemplary heterobifunctional compounds were characterized in KM12 cells. KM12 cells that express TPM3-TRKA fusion protein were treated with 10 nM or 100 nM heterobifunctional compounds disclosed herein or their corresponding warheads/inhibitors for 16 hours. Cells were collected, lysed and subject to immunoblotting using an antibody specific to TRK proteins.
KM12 cells were treated with heterobifunctional compounds at 10 nM or 100 nM for 16 hours.
Cultured cells were washed with cold PBS once and lysed in cold RIPA buffer supplemented with protease inhibitors and phosphatase inhibitors (Beyotime Biotechnology). The solutions were then incubated at 4° C. for 30 minutes with gentle agitation to fully lyse cells. Cell lysates were centrifuged at 13,000 rpm for 10 minutes at 4° C. and pellets were discarded. Total protein concentrations in the lysates were determined by BCA assays (Beyotime Biotechnology). Cell lysates were mixed with Laemmli loading buffer to 1× and heated at 99° C. for 5 min. Proteins were resolved on SDS-PAGE and visualized by chemiluminescence. Images were taken by a ChemiDoc MP Imaging system (Bio-Rad). Protein bands were quantitated using the software provided by Bio-Rad.
The percentage of TRK protein degradation of each compound at 10 nM and 100 nM was determined in KM12 cells as described in Methods. The percentage of degradation of each compound was indicated in the following categories: N/A: data not available; −: no degradation; +: degradation less than 50%; ++: degradation equal or greater than 50% but less than […]; +++: degradation equal or greater than 80%.

T1 sequence (P04629 with tags, fused parts or gaps): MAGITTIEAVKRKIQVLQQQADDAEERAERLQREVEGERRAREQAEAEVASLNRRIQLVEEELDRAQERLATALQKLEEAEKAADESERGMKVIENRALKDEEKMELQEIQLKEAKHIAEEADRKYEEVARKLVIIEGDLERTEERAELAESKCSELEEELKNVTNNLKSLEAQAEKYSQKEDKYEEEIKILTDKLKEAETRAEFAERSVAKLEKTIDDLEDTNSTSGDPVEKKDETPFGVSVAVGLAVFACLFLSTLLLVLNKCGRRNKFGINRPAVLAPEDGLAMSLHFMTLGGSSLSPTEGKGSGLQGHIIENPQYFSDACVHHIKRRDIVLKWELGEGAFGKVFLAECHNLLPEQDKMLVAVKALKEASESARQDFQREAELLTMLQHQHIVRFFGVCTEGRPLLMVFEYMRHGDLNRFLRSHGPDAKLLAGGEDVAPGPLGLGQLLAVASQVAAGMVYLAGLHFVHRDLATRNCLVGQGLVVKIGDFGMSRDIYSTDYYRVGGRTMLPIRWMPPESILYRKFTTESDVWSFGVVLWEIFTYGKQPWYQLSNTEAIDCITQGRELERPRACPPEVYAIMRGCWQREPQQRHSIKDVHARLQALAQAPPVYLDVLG

Compound	inhibition at 0.01 µM (TPM3-TRKA fusion protein)	inhibition at 0.1 µM (TPM3-TRKA fusion protein)	IC50 (KM12 cells)	viability of KM12 cells (KM12 cells; 11-point 3-fold serial dilution, 3 days (FIG. 3))
COCCN1C[C@@H](NC(=O)Nc2c(C)c(-c3cnc(N4CCN(C(=O)CCCCCCCCCNC(=O)C[C@H](NC(=O)[C@@H]5C[C@@H](O)CN5C(=O)[C@@H](NC(=O)C5(F)CC5)C(C)(C)C)c5ccc(-c6scnc6C)cc5)CC4)nc3)nn2-c2ccccc2)[C@H](c2cccc(F)c2)C1 [CPD-015, (2S,4R)-1-((S)-2-(1-fluorocyclopropane-1-carboxamido)-3,3-dimethylbutanoyl)-N-((S)-3-((10-(4-(5-(5-(3-((3S,4R)-4-(3-fluorophenyl)-1-(2-methoxyethyl)pyrrolidin-3-yl)ureido)-4-methyl-1-phenyl-1H-pyrazol-3-yl)pyrimidin-2-yl)piperazin-1-yl)-10-oxodecyl)amino)-1-(4-(4-methylthiazol-5-yl)phenyl)-3-oxopropyl)-4-hydroxypyrrolidine-2-carboxamide]	50 to 800%	50 to 800%	35.5 nM	–
COCCN1C[C@@H](NC(=O)Nc2c(C)c(-c3cnc(N4CCN(C(=O)CCOCCOCCNC(=O)C[C@H](NC(=O)[C@@H]5C[C@@H](O)CN5C(=O)[C@@H](NC(=O)C5(F)CC5)C(C)(C)C)c5ccc(-c6scnc6C)cc5)CC4)nc3)nn2-c2ccccc2)[C@H](c2cccc(F)c2)C1 [CPD-016, (2S,4R)-1-((S)-2-(1-fluorocyclopropane-1-carboxamido)-3,3-dimethylbutanoyl)-N-((S)-3-((2-(2-(3-(4-(5-(5-(3-((3S,4R)-4-(3-fluorophenyl)-1-(2-methoxyethyl)pyrrolidin-3-yl)ureido)-4-methyl-1-phenyl-1H-pyrazol-3-yl)pyrimidin-2-yl)piperazin-1-yl)-3-oxopropoxy)ethoxy)ethyl)amino)-1-(4-(4-methylthiazol-5-yl)phenyl)-3-oxopropyl)-4-hydroxypyrrolidine-2-carboxamide]	< 50%	50 to 800%	190 nM	–
COCCN1C[C@@H](NC(=O)Nc2c(C)c(-c3cnc(N4CCN(C(=O)CCOCCOCCOCCNC(=O)C[C@H](NC(=O)[C@@H]5C[C@@H](O)CN5C(=O)[C@@H](NC(=O)C5(F)CC5)C(C)(C)C)c5ccc(-c6scnc6C)cc5)CC4)nc3)nn2-c2ccccc2)[C@H](c2cccc(F)c2)C1 [CPD-017, (2S,4R)-1-((S)-2-(1-fluorocyclopropane-1-carboxamido)-3,3-dimethylbutanoyl)-N-((S)-16-(4-(5-(5-(3-((3S,4R)-4-(3-fluorophenyl)-1-(2-methoxyethyl)pyrrolidin-3-yl)ureido)-4-methyl-1-phenyl-1H-pyrazol-3-yl)pyrimidin-2-yl)piperazin-1-yl)-1-(4-(4-methylthiazol-5-yl)phenyl)-3,16-dioxo-7,10,13-trioxa-4-azahexadecyl)-4-hydroxypyrrolidine-2-carboxamide]	–	50 to 800%	445 nM	–
COCCN1C[C@@H](NC(=O)Nc2c(C)c(-c3cnc(N4CCN(C(=O)CCOCCOCCOCCOCCNC(=O)C[C@H](NC(=O)[C@@H]5C[C@@H](O)CN5C(=O)[C@@H](NC(=O)C5(F)CC5)C(C)(C)C)c5ccc(-c6scnc6C)cc5)CC4)nc3)nn2-c2ccccc2)[C@H](c2cccc(F)c2)C1 [CPD-018, (2S,4R)-1-((S)-2-(1-fluorocyclopropane-1-carboxamido)-3,3-dimethylbutanoyl)-N-((S)-19-(4-(5-(5-(3-((3S,4R)-4-(3-fluorophenyl)-1-(2-methoxyethyl)pyrrolidin-3-yl)ureido)-4-methyl-1-phenyl-1H-pyrazol-3-yl)pyrimidin-2-yl)piperazin-1-yl)-1-(4-(4-methylthiazol-5-yl)phenyl)-3,19-dioxo-7,10,13,16-tetraoxa-4-azanonadecyl)-4-hydroxypyrrolidine-2-carboxamide]	–	50 to 800%	852 nM	–
COCCN1C[C@@H](NC(=O)Nc2c(C)c(-c3cnc(N4CCN(C(=O)CNc5ccc6c(c5)C(=O)N(C5CCC(=O)NC5=O)C6=O)CC4)nc3)nn2-c2ccccc2)[C@H](c2cccc(F)c2)C1 (stereo partly drawn) [CPD-019, 1-(3-(2-(4-((2-(2,6-dioxopiperidin-3-yl)-1,3-dioxoisoindolin-5-yl)glycyl)piperazin-1-yl)pyrimidin-5-yl)-4-methyl-1-phenyl-1H-pyrazol-5-yl)-3-((3S,4R)-4-(3-fluorophenyl)-1-(2-methoxyethyl)pyrrolidin-3-yl)urea]	> 80%	> 80%	9.2 nM	inhibited the viability
COCCN1C[C@@H](NC(=O)Nc2c(C)c(-c3cnc(N4CCN(C(=O)CCCCCOc5cc(-c6scnc6C)ccc5CNC(=O)[C@@H]5C[C@@H](O)CN5C(=O)[C@@H](NC(=O)C5(F)CC5)C(C)(C)C)CC4)nc3)nn2-c2ccccc2)[C@H](c2cccc(F)c2)C1 [CPD-020, (2S,4R)-1-((S)-2-(1-fluorocyclopropane-1-carboxamido)-3,3-dimethylbutanoyl)-N-(2-((6-(4-(5-(5-(3-((3S,4R)-4-(3-fluorophenyl)-1-(2-methoxyethyl)pyrrolidin-3-yl)ureido)-4-methyl-1-phenyl-1H-pyrazol-3-yl)pyrimidin-2-yl)piperazin-1-yl)-6-oxohexyl)oxy)-4-(4-methylthiazol-5-yl)benzyl)-4-hydroxypyrrolidine-2-carboxamide]	–	50 to 800%	293 nM	–

More lines, main results first:

inhibition at 0.01 µM (TPM3-TRKA fusion protein)	inhibition at 0.1 µM (TPM3-TRKA fusion protein)	Compound	IC50 (KM12 cells)	viability of KM12 cells (KM12 cells; 11-point 3-fold serial dilution, 3 days (FIG. 3))
< 50%	50 to 800%	COCCN1C[C@@H](NC(=O)Nc2c(C)c(-c3cnc(N4CCN(C(=O)CCCCCNC(=O)C[C@H](NC(=O)[C@@H]5C[C@@H](O)CN5C(=O)[C@@H](NC(=O)C5(F)CC5)C(C)(C)C)c5ccc(-c6scnc6C)cc5)CC4)nc3)nn2-c2ccccc2)[C@H](c2cccc(F)c2)C1 [CPD-012, (2S,4R)-1-((S)-2-(1-fluorocyclopropane-1-carboxamido)-3,3-dimethylbutanoyl)-N-((S)-3-((6-(4-(5-(5-(3-((3S,4R)-4-(3-fluorophenyl)-1-(2-methoxyethyl)pyrrolidin-3-yl)ureido)-4-methyl-1-phenyl-1H-pyrazol-3-yl)pyrimidin-2-yl)piperazin-1-yl)-6-oxohexyl)amino)-1-(4-(4-methylthiazol-5-yl)phenyl)-3-oxopropyl)-4-hydroxypyrrolidine-2-carboxamide]	132 nM	–
< 50%	50 to 800%	COCCN1C[C@@H](NC(=O)Nc2c(C)c(-c3cnc(N4CCN(C(=O)CCCNC(=O)C[C@H](NC(=O)[C@@H]5C[C@@H](O)CN5C(=O)[C@@H](NC(=O)C5(F)CC5)C(C)(C)C)c5ccc(-c6scnc6C)cc5)CC4)nc3)nn2-c2ccccc2)[C@H](c2cccc(F)c2)C1 [CPD-013, (2S,4R)-1-((S)-2-(1-fluorocyclopropane-1-carboxamido)-3,3-dimethylbutanoyl)-N-((S)-3-((4-(4-(5-(5-(3-((3S,4R)-4-(3-fluorophenyl)-1-(2-methoxyethyl)pyrrolidin-3-yl)ureido)-4-methyl-1-phenyl-1H-pyrazol-3-yl)pyrimidin-2-yl)piperazin-1-yl)-4-oxobutyl)amino)-1-(4-(4-methylthiazol-5-yl)phenyl)-3-oxopropyl)-4-hydroxypyrrolidine-2-carboxamide]	79.7 nM	–
50 to 800%	> 80%	COCCN1C[C@@H](NC(=O)Nc2c(C)c(-c3cnc(N4CCN(C(=O)CCCCCCCNC(=O)C[C@H](NC(=O)[C@@H]5C[C@@H](O)CN5C(=O)[C@@H](NC(=O)C5(F)CC5)C(C)(C)C)c5ccc(-c6scnc6C)cc5)CC4)nc3)nn2-c2ccccc2)[C@H](c2cccc(F)c2)C1 [CPD-014, (2S,4R)-1-((S)-2-(1-fluorocyclopropane-1-carboxamido)-3,3-dimethylbutanoyl)-N-((S)-3-((8-(4-(5-(5-(3-((3S,4R)-4-(3-fluorophenyl)-1-(2-methoxyethyl)pyrrolidin-3-yl)ureido)-4-methyl-1-phenyl-1H-pyrazol-3-yl)pyrimidin-2-yl)piperazin-1-yl)-8-oxooctyl)amino)-1-(4-(4-methylthiazol-5-yl)phenyl)-3-oxopropyl)-4-hydroxypyrrolidine-2-carboxamide]	17.8 nM	–

— patent US20240246955A1, “TROPOMYOSIN RECEPTOR KINASE (TRK) DEGRADATION COMPOUNDS AND METHODS OF USE” (CULLGEN (SHANGHAI), INC., priority 2021, published 2024)
